Test results from patent publication US12491170B2, “Stable treprostinil prodrugs” (United Therapeutics Corporation, priority 2020, dated 2025).

Tests used:
[1] = biological target: T1, PGE2 receptor 1 (EP1) (Homo sapiens, UniProt P34995); assay: EP1 receptor calcium agonist assay (HEK293T cells); format: cell-based; conditions: Table 22; relative to treprostinil EC50 values; * partial agonists or ambiguous dose-response curves
T1 sequence (P34995 1-402): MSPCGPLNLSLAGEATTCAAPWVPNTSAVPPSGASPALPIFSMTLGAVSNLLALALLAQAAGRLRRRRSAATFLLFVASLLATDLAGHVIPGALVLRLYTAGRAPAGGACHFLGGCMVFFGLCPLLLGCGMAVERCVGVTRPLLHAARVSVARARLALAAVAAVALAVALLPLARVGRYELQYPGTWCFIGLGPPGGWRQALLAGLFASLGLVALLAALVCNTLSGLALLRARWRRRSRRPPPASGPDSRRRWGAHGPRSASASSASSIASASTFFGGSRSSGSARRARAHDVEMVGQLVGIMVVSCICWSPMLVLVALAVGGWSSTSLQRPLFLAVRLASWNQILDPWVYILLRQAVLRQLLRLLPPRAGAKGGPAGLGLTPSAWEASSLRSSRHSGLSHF
Description: Calcium assay kit: Multiscreen™ Calcium 1.0 No Wash Kit (Multispan, Inc., Cat #MSCA01-1)
• EP1 Calcium and DP1 cAMP Assays: HBSS plus 20 mM HEPES • EP2 and IP1 cAMP Assays: 1 mM IBMX in HBSS plus 20 mM HEPES Instruments: FlexStation III (Molecular Devices) and FLIPR 384 (Molecular Devices)
(§1) Cells were thawed from frozen cells and resuspended in assay buffer at desired concentrations. cAMP or Calcium assays were performed according to the manufacturer's protocol using Multiscreen™ TR-FRET cAMP 1.0 No Wash Assay Kit or Multiscreen™ Calcium 1.0 No Wash Kit.
Calcium Assay: Cells were seeded in a 384-well plate at an appropriate density. The calcium assay was conducted according to the manufacturer's protocols (Multiscreen Calcium 1.0 No Wash Assay Kit). The calcium dye loading buffer was added to the cells and incubated for 1 hour at 37° C. For agonist mode, cells were injected with Iloprost control agonist or test compound by FLIPR and calcium mobilization was monitored for 180 seconds with compound injected into the wells at the 19th second. Fluorescent emissions were read at 525 nm with excitation at 490 nm in a FLIPR 384 instrument (Molecular Devices).
Calcium Assay: Calcium assay results are expressed as “RFU” as defined in figure below. Data are represented in Mean±SEM. Dose-response curves were fitted using “Sigmoidal dose-response (variable slope)” function in GraphPad Prism 6. EC50 values were calculated based on the fitted curves.
Prostaglandin receptor activity assessments with treprostinil and treprostinil analogues have been conducted, and a historical, positive control agonist for these receptors, iloprost (for IP, EP2 and EP1) or PGD2 (for DP1), was also included. These studies used cell lines overexpressing either human IP, EP2 or DP1, or EP1 receptors, and following incubation with varying concentrations of compounds, cAMP levels were measured using Fluorescence Resonance Energy Transfer (FRET). The 665/620 (acceptor/donor emission signals) ratio is inversely proportional to the concentration of cAMP.

[2] = biological target: prostaglandin I2 (PGI2) receptor (IP) (Homo sapiens, UniProt P43119); assay: IP receptor cAMP agonist assay (CHO-K1 cells); format: cell-based; conditions: relative to treprostinil EC50 values, * partial agonists or ambiguous dose-response curves
Description: (§2) Cyclic AMP assay kit: Multiscreen™ TR-FRET cAMP 1.0 No Wash Assay Kit (Multispan, Inc.)
as §1
(§3) Gas Cyclic AMP (cAMP) Assay: In agonist mode testing, cells were seeded in a 384-well plate at an appropriate density and then were treated with compounds and incubated at 37° C. for 20 minutes. The reaction was terminated by […] trFluor™ Eu-labeled cAMP and trFluor™ 650-labeled anti-cAMP antibody in lysis buffer. […] All testing wells contained 0.1% DMSO in the final concentrations.
(§4) Data in graphs are represented in Mean±SD. Dose-dependent responses were fitted with sigmoidal dose-response curves allowing variable slopes using GraphPad Prism version 6 (Graphpad Prism).
(§5) These studies used cell lines overexpressing either human IP, EP2 or DP1, or EP1 receptors, and following incubation with varying concentrations of compounds, cAMP levels were measured using Fluorescence Resonance Energy Transfer (FRET).

[3] = biological target: prostaglandin E2 (PGE2) receptor 2 (EP2) (Homo sapiens, UniProt P43116); assay: EP2 receptor cAMP agonist assay (HEK293T cells); format: cell-based; conditions: for EP2 Relative to Tre: Table 22, relative to treprostinil EC50 values, * partial agonists or ambiguous dose-response curves
Description: as §2, §1, §3, §4, §5

[4] = biological target: T2, prostaglandin D2 (PGD2) receptor 1 (DP1) (Homo sapiens, UniProt Q13258); assay: DP1 receptor cAMP agonist assay (HEK293T cells); format: cell-based; conditions: for DP1 Relative to Tre: relative to treprostinil EC50 values, * partial agonists or ambiguous dose-response curves
T2 sequence (Q13258 1-359): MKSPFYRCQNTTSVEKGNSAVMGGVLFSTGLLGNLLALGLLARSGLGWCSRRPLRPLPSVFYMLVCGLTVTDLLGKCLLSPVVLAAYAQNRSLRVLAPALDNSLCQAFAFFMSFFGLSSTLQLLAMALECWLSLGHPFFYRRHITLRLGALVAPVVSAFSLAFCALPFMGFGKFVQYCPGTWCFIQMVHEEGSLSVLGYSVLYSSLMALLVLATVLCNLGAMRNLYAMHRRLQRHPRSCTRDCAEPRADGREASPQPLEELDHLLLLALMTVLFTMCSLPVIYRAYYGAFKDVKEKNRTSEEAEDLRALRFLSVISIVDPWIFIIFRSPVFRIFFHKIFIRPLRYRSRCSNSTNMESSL
Description: as §2, §1, §3, §4, §5

[5] = Hydrolysis of prodrugs to treprostinil at pH 6, 7, 8 and 40 C; format: physicochemical
From the text: Tables 24, 25 and 26 present data for hydrolysis of selected treprostinil prodrugs at pH 6, 7 and 8, respectively, and 40 C.

[6] = regardless of the route of administration; cited from earlier work
[7] = oral delivery, animal studies; cited from earlier work
[8] = Stability in human subcutaneous skin homogenate

Chain of prostaglandin I2 (PGI2) receptor (IP) (P43119 whole entry): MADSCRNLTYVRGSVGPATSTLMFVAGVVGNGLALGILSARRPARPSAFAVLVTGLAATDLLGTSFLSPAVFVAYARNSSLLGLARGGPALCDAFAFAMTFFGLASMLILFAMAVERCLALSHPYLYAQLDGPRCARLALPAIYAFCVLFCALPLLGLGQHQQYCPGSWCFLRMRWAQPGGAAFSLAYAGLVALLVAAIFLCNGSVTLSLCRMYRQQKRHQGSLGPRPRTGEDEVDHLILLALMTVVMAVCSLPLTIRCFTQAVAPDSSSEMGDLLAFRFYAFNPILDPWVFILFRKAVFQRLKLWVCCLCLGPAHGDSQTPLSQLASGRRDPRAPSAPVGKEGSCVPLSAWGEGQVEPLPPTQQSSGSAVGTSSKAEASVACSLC
Chain of prostaglandin E2 (PGE2) receptor 2 (EP2) (P43116 whole entry): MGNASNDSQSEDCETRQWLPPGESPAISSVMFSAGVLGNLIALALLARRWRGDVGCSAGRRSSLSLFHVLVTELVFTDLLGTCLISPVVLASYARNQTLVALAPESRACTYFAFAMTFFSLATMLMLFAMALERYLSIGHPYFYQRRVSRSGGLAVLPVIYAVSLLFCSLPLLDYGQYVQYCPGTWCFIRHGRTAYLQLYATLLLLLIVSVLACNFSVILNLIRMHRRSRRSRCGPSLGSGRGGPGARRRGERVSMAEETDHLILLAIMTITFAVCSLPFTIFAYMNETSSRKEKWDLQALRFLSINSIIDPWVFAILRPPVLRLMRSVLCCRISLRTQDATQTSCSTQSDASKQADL

CCCCCC(CCC1C(O)CC2Cc3c(cccc3OCC(=O)O)CC21)OCOC(=O)C(C)(C)C (stereo not drawn) [Prodrug LII]
EP1 Relative to Tre [1]: 133x*
IP Relative to Tre ([2]; Table 22): 527x
EP2 Relative to Tre [3]: 26x
DP1 Relative to Tre ([4]; Table 22): 73x

CCCCCC(CCC1C(O)CC2Cc3c(cccc3OCC(=O)O)CC21)OC(=O)COc1ccc(OC(F)(F)F)cc1 (stereo not drawn) [Prodrug LXIV]
EP1 Relative to Tre [1]: 0.03x*
IP Relative to Tre ([2]; Table 22): 162x*
EP2 Relative to Tre [3]: 24x*
DP1 Relative to Tre ([4]; Table 22): 38x
Hydrolysis to treprostinil, % Area, t = 1 week ([5]; pH 6, 40 C.): 0.72 % Area
Hydrolysis to treprostinil, % Area, t = 2 weeks ([5]; pH 6, 40 C.): 1.2 % Area
Hydrolysis to treprostinil, % Area, t = 3 weeks ([5]; pH 6, 40 C.): 1.5 % Area
Hydrolysis to treprostinil, % Area, t = 1 week ([5]; pH 7, 40 C.): 0.46 % Area
Hydrolysis to treprostinil, % Area, t = 2 weeks ([5]; pH 7, 40 C.): 0.93 % Area
Hydrolysis to treprostinil, % Area, t = 3 weeks ([5]; pH 7, 40 C.): 1.2 % Area
Hydrolysis to treprostinil, % Area, t = 1 week ([5]; pH 8, 40 C.): 1.8 % Area
Hydrolysis to treprostinil, % Area, t = 2 weeks ([5]; pH 8, 40 C.): 3.9 % Area
Hydrolysis to treprostinil, % Area, t = 3 weeks ([5]; pH 8, 40 C.): 5.8 % Area

CCCCCC(CCC1C(O)CC2Cc3c(cccc3OCC(=O)O)CC21)OC(=O)C12CC3CC(CC(C3)C1)C2 (stereo not drawn) [Prodrug LXIX]
IP Relative to Tre ([2]; Table 22): 1470x*
EP2 Relative to Tre [3]: 236x*
DP1 Relative to Tre ([4]; Table 22): 1897x
Hydrolysis to treprostinil, % Area, t = 1 week ([5]; pH 6, 40 C.): 0.00 % Area
Hydrolysis to treprostinil, % Area, t = 2 weeks ([5]; pH 6, 40 C.): 0.00 % Area
Hydrolysis to treprostinil, % Area, t = 3 weeks ([5]; pH 6, 40 C.): 0.00 % Area
Hydrolysis to treprostinil, % Area, t = 1 week ([5]; pH 7, 40 C.): 0.00 % Area
Hydrolysis to treprostinil, % Area, t = 2 weeks ([5]; pH 7, 40 C.): 0.00 % Area
Hydrolysis to treprostinil, % Area, t = 3 weeks ([5]; pH 7, 40 C.): 0.00 % Area
Hydrolysis to treprostinil, % Area, t = 1 week ([5]; pH 8, 40 C.): 0.00 % Area
Hydrolysis to treprostinil, % Area, t = 2 weeks ([5]; pH 8, 40 C.): 0.00 % Area
Hydrolysis to treprostinil, % Area, t = 3 weeks ([5]; pH 8, 40 C.): 0.00 % Area

CCCCCC(CCC1C(O)CC2Cc3c(cccc3OCC(=O)O)CC21)OC(=O)C(C)C (stereo not drawn) [Prodrug LXVII]
IP Relative to Tre ([2]; Table 22): 148x
EP2 Relative to Tre [3]: 34x*
DP1 Relative to Tre ([4]; Table 22): 184x
Hydrolysis to treprostinil, % Area, t = 1 week ([5]; pH 6, 40 C.): 0.00 % Area
Hydrolysis to treprostinil, % Area, t = 2 weeks ([5]; pH 6, 40 C.): 0.00 % Area
Hydrolysis to treprostinil, % Area, t = 3 weeks ([5]; pH 6, 40 C.): 0.00 % Area
Hydrolysis to treprostinil, % Area, t = 1 week ([5]; pH 7, 40 C.): 0.00 % Area
Hydrolysis to treprostinil, % Area, t = 2 weeks ([5]; pH 7, 40 C.): 0.00 % Area
Hydrolysis to treprostinil, % Area, t = 3 weeks ([5]; pH 7, 40 C.): 0.00 % Area
Hydrolysis to treprostinil, % Area, t = 1 week ([5]; pH 8, 40 C.): 0.00 % Area
Hydrolysis to treprostinil, % Area, t = 2 weeks ([5]; pH 8, 40 C.): 0.23 % Area
Hydrolysis to treprostinil, % Area, t = 3 weeks ([5]; pH 8, 40 C.): 0.27 % Area

CCCCCC(CCC1C(O)CC2Cc3c(cccc3OCC(=O)O)CC21)OC(=O)COc1ccccc1 (stereo not drawn) [Prodrug LXV]
EP1 Relative to Tre [1]: 64x*
IP Relative to Tre ([2]; Table 22): 599x
EP2 Relative to Tre [3]: 187x*
DP1 Relative to Tre ([4]; Table 22): 89x
Hydrolysis to treprostinil, % Area, t = 1 week ([5]; pH 6, 40 C.): 0.13 % Area
Hydrolysis to treprostinil, % Area, t = 2 weeks ([5]; pH 6, 40 C.): 0.29 % Area
Hydrolysis to treprostinil, % Area, t = 3 weeks ([5]; pH 6, 40 C.): 0.39 % Area
Hydrolysis to treprostinil, % Area, t = 1 week ([5]; pH 7, 40 C.): 0.96 % Area
Hydrolysis to treprostinil, % Area, t = 2 weeks ([5]; pH 7, 40 C.): 1.9 % Area
Hydrolysis to treprostinil, % Area, t = 3 weeks ([5]; pH 7, 40 C.): 2.7 % Area
Hydrolysis to treprostinil, % Area, t = 1 week ([5]; pH 8, 40 C.): 6.0 % Area
Hydrolysis to treprostinil, % Area, t = 2 weeks ([5]; pH 8, 40 C.): 11.4 % Area
Hydrolysis to treprostinil, % Area, t = 3 weeks ([5]; pH 8, 40 C.): 16.9 % Area

CCCCC[C@H](O)CC[C@@H]1[C@H]2Cc3cccc(OCC(=O)OCC)c3C[C@H]2C[C@H]1O [Treprostinil ethyl ester, reference compound]
EP1 Relative to Tre [1]: 30x
IP Relative to Tre ([2]; Table 22): 535x
EP2 Relative to Tre [3]: 11x
DP1 Relative to Tre ([4]; Table 22): 18x

CCCCC[C@H](O)CC[C@@H]1[C@H]2Cc3cccc(OCC(=O)O)c3C[C@H]2C[C@H]1O [Treprostinil]
half-life once absorbed [6]: about 1 hour
first-pass effect [7]: approximately 60%

treprostinil diphosphate [Prodrug LXXIII]
IP Relative to Tre ([2]; Table 22): 208x
IP Relative to Tre ([2]; Table 23): 208x
Activity at the EP2 receptor compared to treprostinil ([3]; summary of findings): inactive
DP1 Relative to Tre ([4]; Table 22): 217x
DP1 Relative to Tre ([4]; Table 23): 217x
Activity at the DP1 receptor compared to treprostinil ([4]; summary of findings): several hundred-fold less active
AUC ([8]; human): 2.744 µmol·min/L
Mono AUC (treprostinil formed) ([8]; human): 2.744 µmol·min/L
Percent Remaining (Avg, n = 3) 0 min ([8]; pooled human skin homogenate, 1 μM, 37° C., 0 min): 100%
Percent Remaining (Avg, n = 3) 30 min ([8]; pooled human skin homogenate, 1 μM, 37° C., 30 min): 86.2%
Percent Remaining (Avg, n = 3) 60 min ([8]; pooled human skin homogenate, 1 μM, 37° C., 60 min): 71.2%
Percent Remaining (Avg, n = 3) 120 min ([8]; pooled human skin homogenate, 1 μM, 37° C., 120 min): 64.0%
Hydrolysis to treprostinil, % Area, t = 1 week ([5]; pH 6, 40 C.): 0.00 % Area
Hydrolysis to treprostinil, % Area, t = 2 weeks ([5]; pH 6, 40 C.): 0.00 % Area
Hydrolysis to treprostinil, % Area, t = 3 weeks ([5]; pH 6, 40 C.): 0.00 % Area
Hydrolysis to treprostinil, % Area, t = 1 week ([5]; pH 7, 40 C.): 0.00 % Area
Hydrolysis to treprostinil, % Area, t = 2 weeks ([5]; pH 7, 40 C.): 0.00 % Area
Hydrolysis to treprostinil, % Area, t = 3 weeks ([5]; pH 7, 40 C.): 0.00 % Area
Hydrolysis to treprostinil, % Area, t = 1 week ([5]; pH 8, 40 C.): 0.00 % Area
Hydrolysis to treprostinil, % Area, t = 2 weeks ([5]; pH 8, 40 C.): 0.00 % Area
Hydrolysis to treprostinil, % Area, t = 3 weeks ([5]; pH 8, 40 C.): 0.00 % Area
